Consider 16 molecules from ChEMBL document CHEMBL1909046, “DrugMatrix in vitro pharmacology data”.

The term IC50 denotes the point on the concentration scale where inhibition reaches its midpoint. As a reminder, the Ki is the dissociation constant of the complex between target and ligand, obtained from inhibition or displacement.

For experiment [1], the target named is Aldo-keto reductase family 1 member B1 (Rattus norvegicus, UniProt P07943). The experiment is described as follows: biochemical. Format: tissue-based, Lens of camera-type eye.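 Also: inhibition of aldose reductase enzyme activity, measured with DL-glyceraldehyde as the substrate; in other assays of this panel Not Active means under 50% inhibition at 10 µM.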
The nature of experiment [2]: DRUGMATRIX: Calcium Channel Type L, Phenylalkylamine radioligand binding (ligand: [3H] (-)-Desmethoxyverapamil (D-888)). It counts as cell membranes, Rattus norvegicus, Wistar, Brain, Membrane. As to conditions: Not Active = under 50% inhibition at 10 µM.
A short description of experiment [3]: DRUGMATRIX: GABAA, Flunitrazepam, Central radioligand binding (ligand: [3H] Flunitrazepam). As to conditions: Not Active = under 50% inhibition at 10 µM. It counts as cell membranes, Rattus norvegicus, Wistar, Brain, Membrane.
Experiment [4] addresses T1, 3-hydroxy-3-methylglutaryl-coenzyme A reductase (Homo sapiens, UniProt P04035).
T1 sequence (P04035 whole entry): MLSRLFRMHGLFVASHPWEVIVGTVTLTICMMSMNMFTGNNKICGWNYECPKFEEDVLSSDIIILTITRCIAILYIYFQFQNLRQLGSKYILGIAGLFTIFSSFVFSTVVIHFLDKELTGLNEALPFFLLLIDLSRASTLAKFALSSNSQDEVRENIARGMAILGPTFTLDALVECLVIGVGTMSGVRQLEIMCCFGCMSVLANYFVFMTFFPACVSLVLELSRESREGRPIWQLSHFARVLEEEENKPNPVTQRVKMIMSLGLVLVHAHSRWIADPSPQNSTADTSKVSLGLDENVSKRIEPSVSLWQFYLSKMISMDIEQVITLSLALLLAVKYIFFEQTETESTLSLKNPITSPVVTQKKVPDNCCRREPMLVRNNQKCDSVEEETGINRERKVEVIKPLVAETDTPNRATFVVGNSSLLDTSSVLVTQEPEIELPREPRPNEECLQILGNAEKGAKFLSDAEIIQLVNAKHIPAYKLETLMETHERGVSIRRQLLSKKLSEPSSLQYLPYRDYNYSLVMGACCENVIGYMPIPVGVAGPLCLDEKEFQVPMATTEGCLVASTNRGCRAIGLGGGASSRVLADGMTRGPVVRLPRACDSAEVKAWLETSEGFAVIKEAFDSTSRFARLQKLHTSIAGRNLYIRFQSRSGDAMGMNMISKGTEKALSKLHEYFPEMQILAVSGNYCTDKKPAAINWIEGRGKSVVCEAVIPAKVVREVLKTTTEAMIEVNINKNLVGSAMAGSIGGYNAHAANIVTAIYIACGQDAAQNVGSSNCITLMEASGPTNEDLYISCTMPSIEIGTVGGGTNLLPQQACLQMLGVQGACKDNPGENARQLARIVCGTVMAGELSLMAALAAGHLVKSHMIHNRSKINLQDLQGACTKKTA
Further details: species or system Escherichia coli.

Experiment [5] concerns the target Mitogen-activated protein kinase 14 (Homo sapiens, UniProt Q16539). Further details: species or system Escherichia coli.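 Also: inhibition of p38alpha enzyme activity in a biochemical kinase assay, with myelin basic protein serving as substrate; in other assays of this panel Not Active means under 50% inhibition at 10 µM.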
A short description of experiment [6]: DRUGMATRIX: Purinergic P2X radioligand binding (ligand: [3H] alpha, beta-Methylene-ATP). Format: cell membranes, Oryctolagus cuniculus, New Zealand albino, Urinary bladder, Membrane. As to conditions: Not Active = under 50% inhibition at 10 µM.
The target in the next experiment is Estrogen receptor beta (Homo sapiens, UniProt Q92731). To be noted: sf9. Also: in other assays of this panel Not Active means under 50% inhibition at 10 µM.
Sequence of Estrogen receptor beta (Q92731 whole entry): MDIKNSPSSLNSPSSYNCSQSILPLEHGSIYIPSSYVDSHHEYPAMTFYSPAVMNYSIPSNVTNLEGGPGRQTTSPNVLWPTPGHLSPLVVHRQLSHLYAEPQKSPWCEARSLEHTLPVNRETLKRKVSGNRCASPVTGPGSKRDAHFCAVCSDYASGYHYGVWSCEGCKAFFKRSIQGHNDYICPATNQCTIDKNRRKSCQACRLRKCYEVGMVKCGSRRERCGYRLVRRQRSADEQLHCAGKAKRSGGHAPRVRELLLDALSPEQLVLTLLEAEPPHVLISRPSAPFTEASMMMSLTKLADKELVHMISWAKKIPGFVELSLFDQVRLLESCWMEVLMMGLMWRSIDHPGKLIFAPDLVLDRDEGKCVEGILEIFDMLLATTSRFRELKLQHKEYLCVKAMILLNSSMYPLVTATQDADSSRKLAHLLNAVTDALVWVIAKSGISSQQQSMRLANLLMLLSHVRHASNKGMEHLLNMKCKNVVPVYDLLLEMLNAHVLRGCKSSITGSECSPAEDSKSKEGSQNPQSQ

Sequence of Mitogen-activated protein kinase 14 (Q16539 whole entry): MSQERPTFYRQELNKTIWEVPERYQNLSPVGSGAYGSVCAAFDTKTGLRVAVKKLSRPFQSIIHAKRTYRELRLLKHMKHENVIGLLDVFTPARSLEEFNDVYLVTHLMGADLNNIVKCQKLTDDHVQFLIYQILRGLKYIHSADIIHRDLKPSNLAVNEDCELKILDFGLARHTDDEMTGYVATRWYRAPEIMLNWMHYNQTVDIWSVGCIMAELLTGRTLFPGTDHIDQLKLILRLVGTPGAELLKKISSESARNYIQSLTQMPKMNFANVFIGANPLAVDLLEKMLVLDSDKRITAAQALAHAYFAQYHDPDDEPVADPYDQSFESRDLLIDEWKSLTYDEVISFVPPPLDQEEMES

`O=C(O)CC(O)(CC(=O)O)C(=O)O` [CITRIC ACID]: the 50% inhibitory concentration (IC50) entry in experiment [1], in experiment [2], in experiment [3], in experiment [4], in experiment [5] and in experiment [6] was “Not Active” in each case. Also, the IC50 result on Estrogen receptor beta is recorded as “Not Active”. For the same molecule, the Ki entry in experiment [2], in experiment [3] and in experiment [6] was “Not Active” in each case.

Consider `CN1CCN(C(c2ccccc2)c2ccccc2)CC1` [CYCLIZINE], for which the IC50 result was “Not Active” in experiment [1]; 4.64 µM in experiment [2] (read-out: IC50); “Not Active” in experiment [3]; “Not Active” in experiment [4]; “Not Active” in experiment [5]; “Not Active” in experiment [6]. At Estrogen receptor beta, the IC50 result is reported as “Not Active”. The values for the Ki in experiment [2] (read-out: Ki), in experiment [3] and in experiment [6] were 4.51 µM, “Not Active” and “Not Active”, respectively.

Consider `CN1C[C@@H]2C[C@H]1CN2c1cc2c(cc1F)c(=O)c(C(=O)O)cn2C1CC1` [DANOFLOXACIN], for which the IC50 entry in experiment [1], in experiment [2], in experiment [3], in experiment [4], in experiment [5] and in experiment [6] was “Not Active” in each case. Further, at Estrogen receptor beta, the IC50 result is on record as “Not Active”. Further, the Ki entry in experiment [2], in experiment [3] and in experiment [6] was “Not Active” each time.

For the molecule `COc1cccc2c1C(=O)c1c(O)c3c(c(O)c1C2=O)C[C@@](O)(C(C)=O)C[C@@H]3O[C@H]1C[C@H](N)[C@H](O)[C@H](C)O1` [DAUNORUBICIN], the IC50 entry in experiment [1], in experiment [2], in experiment [3], in experiment [4], in experiment [5] and in experiment [6] was “Not Active” in each case. For the same molecule, the IC50 entry at Estrogen receptor beta is reported as “Not Active”. Moreover, the Ki result in experiment [2], in experiment [3] and in experiment [6] was “Not Active” throughout.

For the molecule `O=C(O)c1cc(-c2ccc(F)cc2F)ccc1O` [DIFLUNISAL], the IC50 entry in experiment [1], in experiment [2], in experiment [3], in experiment [4], in experiment [5] and in experiment [6] was “Not Active” each time. On Estrogen receptor beta, the IC50 entry was “Not Active”. Moreover, the Ki entry in experiment [2], in experiment [3] and in experiment [6] was “Not Active” in each case.

On to `CC1=NN(c2ccccc2)C(=O)C1` [EDARAVONE], for which the IC50 entry in experiment [1], in experiment [2], in experiment [3], in experiment [4], in experiment [5] and in experiment [6] was “Not Active” in each case. In addition, the IC50 result against Estrogen receptor beta is “Not Active”. The inhibition constant Ki result in experiment [2], in experiment [3] and in experiment [6] was “Not Active” in each case.

For the molecule `CC(C)C[C@H]1C(=O)N2CCC[C@H]2[C@]2(O)O[C@](NC(=O)[C@@H]3C=C4c5cccc6[nH]cc(c56)C[C@H]4N(C)C3)(C(C)C)C(=O)N12` [ERGOCRYPTINE], the IC50 result in experiment [1], in experiment [2], in experiment [3], in experiment [4], in experiment [5] and in experiment [6] was “Not Active” each time. The IC50 result against Estrogen receptor beta is on record as “Not Active”. For the same molecule, the Ki entry in experiment [2], in experiment [3] and in experiment [6] was “Not Active” each time.

Consider `C[C@]12CC[C@@H]3c4ccc(O)cc4CC[C@H]3[C@@H]1C[C@@H](O)[C@@H]2O` [ESTRIOL], for which the IC50 result in experiment [1], in experiment [2], in experiment [3], in experiment [4], in experiment [5] and in experiment [6] was “Not Active” throughout. Moreover, the IC50 entry against Estrogen receptor beta was “Not Active”. Further, the Ki result in experiment [2], in experiment [3] and in experiment [6] was “Not Active” throughout.

As for `C#C[C@]1(O)CC[C@H]2[C@@H]3CCC4=CC(=O)CC[C@]4(C)[C@H]3CC[C@@]21C` [ETHISTERONE], the IC50 result in experiment [1], in experiment [2], in experiment [3], in experiment [4], in experiment [5] and in experiment [6] was “Not Active” each time. In addition, at Estrogen receptor beta, the IC50 entry was “Not Active”. Further, the Ki result in experiment [2], in experiment [3] and in experiment [6] was “Not Active” throughout.

For the molecule `CC(C)(C(=O)O)c1ccc(C(O)CCCN2CCC(C(O)(c3ccccc3)c3ccccc3)CC2)cc1` (stereo not given) [FEXOFENADINE], the IC50 result in experiment [1], in experiment [2], in experiment [3], in experiment [4], in experiment [5] and in experiment [6] was “Not Active” throughout. Moreover, the IC50 result at Estrogen receptor beta is listed as “Not Active”. Besides, the Ki result in experiment [2], in experiment [3] and in experiment [6] was “Not Active” throughout.

As to `CN1CCN(c2c(F)cc3c(=O)c(C(=O)O)cn(CCF)c3c2F)CC1` [FLEROXACIN], the IC50 result in experiment [1], in experiment [2], in experiment [3], in experiment [4], in experiment [5] and in experiment [6] was “Not Active” each time. Further, at Estrogen receptor beta, the IC50 result is recorded as “Not Active”. Also, the Ki result in experiment [2], in experiment [3] and in experiment [6] was “Not Active” throughout.

Take `O=c1[nH]c(=O)n([C@H]2C[C@H](O)[C@@H](CO)O2)cc1F` [FLOXURIDINE]: the IC50 result in experiment [1], in experiment [2], in experiment [3], in experiment [4], in experiment [5] and in experiment [6] was “Not Active” each time. Further, the IC50 entry at Estrogen receptor beta is given as “Not Active”. In addition, the Ki entry in experiment [2], in experiment [3] and in experiment [6] was “Not Active” throughout.

Consider `COC(=O)Nc1nc2cc(C(=O)c3ccc(F)cc3)ccc2[nH]1` [FLUBENDAZOLE], for which the IC50 entry in experiment [1], in experiment [2], in experiment [3], in experiment [4], in experiment [5] and in experiment [6] was “Not Active” throughout. Moreover, the IC50 entry against Estrogen receptor beta is “Not Active”. Besides, the Ki entry in experiment [2], in experiment [3] and in experiment [6] was “Not Active” throughout.

As to `CC(=O)OCC(=O)[C@@]1(O)CC[C@H]2[C@@H]3CCC4=CC(=O)CC[C@]4(C)[C@@]3(F)[C@@H](O)C[C@@]21C` [FLUDROCORTISONE ACETATE], the IC50 result in experiment [1], in experiment [2], in experiment [3], in experiment [4], in experiment [5] and in experiment [6] was “Not Active” each time. On Estrogen receptor beta, the IC50 entry was “Not Active”. The Ki result in experiment [2], in experiment [3] and in experiment [6] was “Not Active” each time.

`CC(=O)OCC(=O)[C@@]12OC(C)(C)O[C@@H]1C[C@H]1[C@@H]3C[C@H](F)C4=CC(=O)C=C[C@]4(C)[C@@]3(F)[C@@H](O)C[C@@]12C` [FLUOCINONIDE]: the IC50 entry in experiment [1], in experiment [2], in experiment [3], in experiment [4], in experiment [5] and in experiment [6] was “Not Active” throughout. For the same molecule, the IC50 result against Estrogen receptor beta was “Not Active”. Also, the Ki entry in experiment [2], in experiment [3] and in experiment [6] was “Not Active” each time.

For the molecule `Cc1ccc(C)c(OCCCC(C)(C)C(=O)O)c1` [GEMFIBROZIL], the IC50 result in experiment [1], in experiment [2], in experiment [3], in experiment [4], in experiment [5] and in experiment [6] was “Not Active” each time. At Estrogen receptor beta, the IC50 entry was “Not Active”. The Ki entry in experiment [2], in experiment [3] and in experiment [6] was “Not Active” throughout.
